Entries after “also recorded” stand apart in the source; their conditions may differ.
Assays:
[1] = test system: offspring of pregnant dams; assay: Ultrasonic vocalizations of pups; format: in vivo, mice
Method: (§1) Mice were mated overnight and females were checked daily for the presence of seminal plugs, noted as embryonic day 0.5 (E0.5). On E12.5, pregnant female mice were weighed and injected with a single dose (20 mg/kg i.p.) of poly(I:C) (Sigma Aldrich, USA) or PBS vehicle. Each dam was returned to its cage and left undisturbed until the birth of its litter. All pups remained with the mother until weaning on postnatal day 21 (P21), at which time mice were group housed at a maximum of 5 per cage with same-sex littermates. For checking the effect of poly(I:C) administration at different time points during pregnancy, the present inventors injected poly(I:C) into pregnant dams on E12.5, E15.5, or E18.5.
On postnatal day 9, mouse pup ultrasonic vocalizations (USVs) were detected for 3 min using an Ultra-Sound Gate CM16/CMPA microphone (AviSoft, Germany) and SAS Prolab software (AviSoft, Germany) in a sound attenuation chamber under stable temperature (19-22° C.) and light control (15 lux).

[2] = test system: offspring of pregnant dams; assay: Analysis of cortical patches (absence of SATB2 or TBR1 expression) in offspring after maternal immune activation; format: in vivo, mice
Method: as §1
For cryosectioning, animals were intracardially perfused, and the brain was dissected out, fixed with 4% paraformaldehyde in PBS overnight at 4° C., and cryoprotected in 30% sucrose solution. The left hemisphere was marked with a needle and the sections were coronally sliced at 40 μm using a cryostat (Leica, USA). For vibratome sectioning, animals were intracardially perfused, and the brain was fixed with 4% paraformaldehyde in PBS overnight at 4° C. The brains were coronally sliced at 50 μm with a Leica VT1000S vibratome (Leica, USA).
Slices were permeabilized with blocking solution containing 0.4% Triton X-100 and 2% goat serum in PBS for 1 h at room temperature (RT) and then incubated with anti-rabbit-TBR1 (ab31940, Abcam, USA), anti-mouse-SATB2 (ab51502, Abcam, USA), anti-rabbit-PV (PV27, Swant, Switzerland), anti-rabbit-VIP (20077, Immunostar, USA), anti-mouse-NeuN (MAB377X, Millipore, USA), or anti-rabbit-c-Fos (sc-7270, Santa Cruz, USA) antibodies overnight at 4° C. […]
Cortical patches were identified by the absence of SATB2 or TBR1 expression. Spatial locations of the cortical patches were determined based on their distance from the midline of the brain and the layer structures of the cortex. […] The size of the cortical patches was calculated using Zen software (Carl Zeiss, Germany).

polyinosinic:polycytidylic acid [poly(I:C)]
USV calls made by pups upon separation from mothers at P9 ([1]; dams injected at E12.5, versus PBS offspring): emitted more ultrasonic vocalization (USV) calls
USV calls made by pups upon separation from mothers at P9 ([1]; dams injected at E15.5 or E18.5): This finding was not observed; also recorded: such an increase was not observed
offspring with cortical patches in the S1 ([2]; dams injected at E12.5, 20 mg/kg i.p.): 77%
offspring with cortical patches in the S1 ([2]; dams injected at E15.5): 13%
offspring with cortical patches in the S1 ([2]; dams injected at E18.5): none
